Laboratory results from PubChem BioAssay AID1259407 (Chemical Carcinogenesis Research Information System (CCRIS), 2018).
Activity calls are given as the source filed them. No rule for the calls is given here.

Tested on: CCRIS mutagenicity, Ames/micronucleus/aberration tests
Assay: CCRIS mutagenicity studies
[1] = Test System: AMES SALMONELLA TYPHIMURIUM, Strain/Indicator: TA98, Metabolic Activation: NONE, Method: PREINCUBATION
[2] = Test System: AMES SALMONELLA TYPHIMURIUM, Strain/Indicator: TA100, Metabolic Activation: NONE, Method: PREINCUBATION
[3] = Test System: AMES SALMONELLA TYPHIMURIUM, Strain/Indicator: TA98, Metabolic Activation: RAT, LIVER, S-9, PCB, Method: PREINCUBATION
[4] = Test System: AMES SALMONELLA TYPHIMURIUM, Strain/Indicator: TA98, Metabolic Activation: RAT, LIVER, S-9, AROCLOR 1254, Method: PREINCUBATION
[5] = Test System: AMES SALMONELLA TYPHIMURIUM, Strain/Indicator: TA100, Metabolic Activation: RAT, LIVER, S-9, AROCLOR 1254, Method: PREINCUBATION

`O=c1n(Cl)c(=O)n(Cl)c(=O)n1Cl` was tested, and the mutagenic call [1] was “inactive; negative”, the mutagenic call (Test System: AMES SALMONELLA TYPHIMURIUM, Strain/Indicator: TA98, Metabolic Activation: RAT LIVER S-9, PHENOBARBITAL AND BETA-NAPHTHOFLAVONE, Method: PREINCUBATION) was “inactive; negative” and the mutagenic call (Test System: AMES SALMONELLA TYPHIMURIUM, Strain/Indicator: TA98, Metabolic Activation: RAT, LIVER, S-9, KC 500, Method: PREINCUBATION) was “inactive; negative”. For the same molecule, the mutagenic call [2] was “inactive; negative”, the mutagenic call (Test System: AMES SALMONELLA TYPHIMURIUM, Strain/Indicator: TA100, Metabolic Activation: RAT LIVER S-9, PHENOBARBITAL AND BETA-NAPHTHOFLAVONE, Method: PREINCUBATION) was “inactive; negative” and the mutagenic call (Test System: AMES SALMONELLA TYPHIMURIUM, Strain/Indicator: TA100, Metabolic Activation: RAT, LIVER, S-9, KC 500, Method: PREINCUBATION) was “inactive; negative”. The mutagenic call (Test System: AMES SALMONELLA TYPHIMURIUM, Strain/Indicator: TA1535, Metabolic Activation: NONE, Method: PREINCUBATION) was “inactive; negative”, the mutagenic call (Test System: AMES SALMONELLA TYPHIMURIUM, Strain/Indicator: TA1535, Metabolic Activation: RAT LIVER S-9, PHENOBARBITAL AND BETA-NAPHTHOFLAVONE, Method: PREINCUBATION) was “inactive; negative” and the mutagenic call (Test System: AMES SALMONELLA TYPHIMURIUM, Strain/Indicator: TA1535, Metabolic Activation: RAT, LIVER, S-9, KC 500, Method: PREINCUBATION) was “inactive; negative”. The mutagenic call (Test System: AMES SALMONELLA TYPHIMURIUM, Strain/Indicator: TA1537, Metabolic Activation: NONE, Method: PREINCUBATION) was “inactive; negative”, the mutagenic call (Test System: AMES SALMONELLA TYPHIMURIUM, Strain/Indicator: TA1537, Metabolic Activation: RAT LIVER S-9, PHENOBARBITAL AND BETA-NAPHTHOFLAVONE, Method: PREINCUBATION) was “inactive; negative” and the mutagenic call (Test System: AMES SALMONELLA TYPHIMURIUM, Strain/Indicator: TA1537, Metabolic Activation: RAT, LIVER, S-9, KC 500, Method: PREINCUBATION) was “inactive; negative”. The mutagenic call (Test System: AMES SALMONELLA TYPHIMURIUM, Strain/Indicator: TA1538, Metabolic Activation: NONE, Method: PREINCUBATION) was “inactive; negative”, the mutagenic call (Test System: AMES SALMONELLA TYPHIMURIUM, Strain/Indicator: TA1538, Metabolic Activation: RAT LIVER S-9, PHENOBARBITAL AND BETA-NAPHTHOFLAVONE, Method: PREINCUBATION) was “inactive; negative” and the mutagenic call (Test System: AMES SALMONELLA TYPHIMURIUM, Strain/Indicator: TA1538, Metabolic Activation: RAT, LIVER, S-9, KC 500, Method: PREINCUBATION) was “inactive; negative”. The mutagenic call (Test System: E. COLI, Strain/Indicator: WP2 UVRA, Metabolic Activation: NONE, Method: PREINCUBATION) was “inactive; negative”, the mutagenic call (Test System: E. COLI, Strain/Indicator: WP2UVRA, Metabolic Activation: NONE, Method: PREINCUBATION) was “inactive; negative” and the mutagenic call (Test System: E. COLI, Strain/Indicator: WP2UVRA, Metabolic Activation: RAT LIVER S-9, PHENOBARBITAL AND BETA-NAPHTHOFLAVONE, Method: PREINCUBATION) was “inactive; negative”. For the same molecule, the mutagenic call (Test System: E. COLI, Strain/Indicator: WP2 UVRA, Metabolic Activation: RAT, LIVER, S-9, KC 500, Method: PREINCUBATION) was “inactive; negative”.

`NNc1nncc2cccnc12` was tested, and the mutagenic call [1] was “active; positive”, the mutagenic call [3] was “active; positive” and the mutagenic call [2] was “active; positive”. For the same molecule, the mutagenic call (Test System: AMES SALMONELLA TYPHIMURIUM, Strain/Indicator: TA100, Metabolic Activation: RAT, LIVER, S-9, PCB, Method: PREINCUBATION) was “active; positive”.

In the case of `Cn1c(N)nc2cc(C#N)ccc21`, the mutagenic call [4] was “active; positive” and the mutagenic call [5] was “inactive; negative”.

With `O=[N+]([O-])c1cc2c3c(ccc2c2ccccc12)[C@H](O)[C@@H](O)C=C3` the mutagenic call [1] was “active; positive”, the mutagenic call (Test System: AMES SALMONELLA TYPHIMURIUM, Strain/Indicator: TA98, Metabolic Activation: NONE, Method: STANDARD PLATE) was “inactive; negative” and the mutagenic call [4] was “inactive; negative”. The mutagenic call (Test System: AMES SALMONELLA TYPHIMURIUM, Strain/Indicator: TA98, Metabolic Activation: RAT, LIVER, S-9, AROCLOR 1254, Method: STANDARD PLATE) was “active; positive”, the mutagenic call [2] was “active; positive” and the mutagenic call (Test System: AMES SALMONELLA TYPHIMURIUM, Strain/Indicator: TA100, Metabolic Activation: NONE, Method: STANDARD PLATE) was “active; positive”. The mutagenic call [5] was “active; positive”, the mutagenic call (Test System: AMES SALMONELLA TYPHIMURIUM, Strain/Indicator: TA100, Metabolic Activation: RAT, LIVER, S-9, AROCLOR 1254, Method: STANDARD PLATE) was “active; positive” and the mutagenic call (Test System: CHINESE HAMSTER OVARY, Strain/Indicator: CHO-K1-BH4 (HGPRT)/6-THIOGUANINE, Metabolic Activation: NONE, Method: STANDARD PLATE) was “inactive; negative”. For the same molecule, the mutagenic call (Test System: CHINESE HAMSTER OVARY, Strain/Indicator: CHO-K1-BH4 (HGPRT)/6-THIOGUANINE, Metabolic Activation: RAT, LIVER, S-9, AROCLOR 1254, Method: STANDARD PLATE) was “active; positive”, the mutagenic call (Test System: CHINESE HAMSTER OVARY, Strain/Indicator: CHO-UV5 (HGPRT)/6-THIOGUANINE, Metabolic Activation: NONE, Method: STANDARD PLATE) was “inactive; negative” and the mutagenic call (Test System: CHINESE HAMSTER OVARY, Strain/Indicator: CHO-UV5 (HGPRT)/6-THIOGUANINE, Metabolic Activation: RAT, LIVER, S-9, AROCLOR 1254, Method: STANDARD PLATE) was “active; positive”.

For `CCCC/C=C/C=C/C=C/C=C/C=C/OC[C@@H](O)CO`, the mutagenic call [2] was “active; positive” and the mutagenic call [5] was “active; positive”.

For `C[C@H](CCC(=O)O)[C@H]1CC[C@H]2[C@@H]3CC[C@@H]4C[C@@H](O)CC[C@]4(C)[C@H]3CC(=O)[C@]12C`, the mutagenic call (Test System: AMES SALMONELLA TYPHIMURIUM, Strain/Indicator: TA98, Metabolic Activation: NONE, Method: FLUCTUATION TEST) was “inactive; negative”, the mutagenic call [1] was “inactive; negative” and the mutagenic call [3] was “inactive; negative”. For the same molecule, the mutagenic call (Test System: AMES SALMONELLA TYPHIMURIUM, Strain/Indicator: TA100, Metabolic Activation: NONE, Method: FLUCTUATION TEST) was “inactive; negative”.
